From ChEMBL document CHEMBL2069192, “Synthesis of 3-(1-alkyl/aminoalkyl-3-vinyl-piperidin-4-yl)-1-(quinolin-4-yl)-propan-1-ones and their 2-methylene derivatives as potential spermicidal and microbicidal agents” (Bioorg Med Chem Lett, 2012)
≈ marks a conversion by molar mass, not a printed value. Calls of active or inactive are those of the source. No cut-off for these calls is given here.

Columns and labels:
Spermatozoa = assay: Spermicidal activity against human spermatozoa at 10 mg/ml by modified sander-cramer assay; assay type: functional
Trichomonas vaginalis [1] = assay: Antimicrobial activity against clinical isolate of Trichomonas vaginalis; assay type: functional
Trichomonas vaginalis [2] = assay: Antimicrobial activity against Trichomonas vaginalis ATCC 25258; assay type: functional
HeLa = assay: Cytotoxicity against human HeLa cells by MTT assay; assay type: cell-based
[3] = Antimicrobial activity against Lactobacillus jensenii

Structure (SMILES) | Activity (Spermatozoa) | MIC (Trichomonas vaginalis [1]) | MIC (Trichomonas vaginalis [2]) | EC50 (HeLa) | EC50 [3]
Cc1ncc([N+](=O)[O-])n1CCO [METRONIDAZOLE] | inactive | 2 µg/mL (≈ 11.7 µM) | 62.5 µg/mL (≈ 365 µM) | > 1000 µg/mL | > 1000 µg/mL
C=C[C@H]1CN(CCCC)CC[C@H]1CC(=C)C(=O)c1ccnc2ccccc12.O=C(O)C(O)C(O)C(=O)O | – | 3.12 µg/mL | 50 µg/mL | 138 µg/mL | 321 µg/mL
C=C[C@H]1CN(CCCCCC)CC[C@H]1CCC(=O)c1ccnc2ccccc12 | inactive | – | – | – | –
C=C[C@H]1CN2CC[C@H]1C[C@@H]2[C@@H](O)c1ccnc2ccccc12 [CINCHONINE] | – | inactive | inactive | 697 µg/mL (≈ 2370 µM) | 428 µg/mL (≈ 1450 µM)
C=C[C@H]1CN(CCCCC)CC[C@H]1CC(=C)C(=O)c1ccnc2ccccc12.O=C(O)C(O)C(O)C(=O)O | – | 12.5 µg/mL | 25 µg/mL | 104 µg/mL | 130 µg/mL
C=C[C@H]1CN(CC(C)C)CC[C@H]1CCC(=O)c1ccnc2ccccc12 | inactive | – | – | – | –
C=C[C@H]1CN(CC)CC[C@H]1CCC(=O)c1ccnc2ccccc12 | inactive | – | – | – | –
C=C[C@H]1CN(CCCC)CC[C@H]1CCC(=O)c1ccnc2ccccc12 | inactive | – | – | – | –
C=C[C@H]1CN(CCCCC)CC[C@H]1CCC(=O)c1ccnc2ccccc12.O=C(O)C(O)C(O)C(=O)O | – | 1.5 µg/mL | 3.12 µg/mL | 19.1 µg/mL | 76.3 µg/mL
CCCCCCCCCc1ccc(OCCOCCOCCOCCOCCOCCOCCOCCOCCO)cc1 [NONOXYNOL 9] | – | 37.5 µg/mL (≈ 60.8 µM) | 37.5 µg/mL (≈ 60.8 µM) | 33.2 µg/mL (≈ 53.8 µM) | 32.5 µg/mL (≈ 52.7 µM)
C=C[C@H]1CN(CCC)CC[C@H]1CCC(=O)c1ccnc2ccccc12.O=C(O)C(O)C(O)C(=O)O | – | 25 µg/mL | 100 µg/mL | 276 µg/mL | 526 µg/mL
C=C[C@H]1CN(CC)CC[C@H]1CC(=C)C(=O)c1ccnc2ccccc12.O=C(O)C(O)C(O)C(=O)O | – | 12.5 µg/mL | 50 µg/mL | 133 µg/mL | 685 µg/mL
C=C[C@H]1CNCC[C@H]1CCC(=O)c1ccnc2ccccc12 [CINCHOTOXIN] | – | inactive | inactive | > 1000 µg/mL | 449 µg/mL (≈ 1530 µM)
C=C[C@H]1CN(CCCCCCCC)CC[C@H]1CCC(=O)c1ccnc2ccccc12 | inactive | – | – | – | –
